From patent US20210032369A1, “METHODS RELATED TO PARKINSON?S DISEASE AND SYNUCLEINOPATHIES” (The Scripps Research Institute, priority 2018, published 2021)

Tested on: Pα-syn* aggregates in PFF-seeded primary hippocampal neurons
Assay: Autophagy modulation assay: Pα-syn* aggregates in PFF-seeded primary hippocampal neurons
Assay type: cell-based, mouse
Details: treated from day 3.5 to day 6 post-PFF exposure, rapamycin 300 nM, chloroquine 1 μM, 3-Methyladenine 1 mM, 200 cells counted blinded, versus vehicle
Experimental: Primary neuronal cultures and PFFs seeding: Primary neuronal cultures were prepared from E16-E18 C57BL/6 mouse brains (Charles River Laboratories) using standard procedures. For immunofluorescence experiments, dissociated hippocampal neurons were plated onto poly-L-lysine coated glass coverslips placed in 24-well plates, at a cell density of 125,000 cells/well. For biochemical assays, dissociated cortical neurons were plated onto poly-L-lysine-coated 6-well plates at a cell density of 1,000,000 cells/well. Neuronal cultures were seeded with PFFs at 5-6 days in vitro (DIV). […] Just before seeding, PFFs were diluted in PBS at 0.1 mg/ml, sonicated during 30 sec (0.5 sec ON, 0.5 sec OFF, power 30%), and diluted in neuronal media. Two μg/ml PFFs (final) per well were added on 24-well plates for immunofluorescence experiments, and 4 μg/ml PFFs (final) per well were added to 6-well plates for biochemical assays. In the case of control conditions, an equivalent volume of PBS was added to the neuronal cultures. Autophagy modulation assays: Dissociated hippocampal neurons were plated onto poly-L-lysine coated glass coverslips placed in 24-well plates, at a cell density of 125,000 cells/well and seeded with PFFs (or equivalent volume of PBS for the control) at 5-6 DIV. […] Thereafter, neuronal cultures were grown for an extra 2.5 days until a total of 6 days after PFF seeding, were fixed and processed for immunofluorescence. In order to assess the effect of autophagy modulation on Pα-syn* generation, a total of 200 cells per treatment were evaluated and the number of Pα-syn* aggregates per cells was counted in a blinded fashion at 100× magnification. Immunofluorescence experiments: Neurons were fixed for 30 min at room temperature with 4% (w/v) paraformaldehyde in PBS containing 4% (w/v) sucrose. Neurons were washed with PBS, permeabilized with 0.2% (v/v) Triton X-100 in PBS for 6 min, washed again in PBS and blocked for 1 hour at room temperature. […]

| SMILES | number of Pα-syn* aggregates per cell | number of Pα-syn* aggregates per cell (listed as 3-MA) |
| --- | --- | --- |
| Cn1cnc(N)c2ncnc1-2 [3-Methyladenine] | decrease | fewer |
| CCN(CC)CCCC(C)Nc1ccnc2cc(Cl)ccc12 (stereo not drawn) [chloroquine] | fewer |  |
